Our source for the RP-LC retention time values is the METLIN SMRT retention time set (Domingo-Almenara et al. 2019).

A short description of the data set: gradient 5% acetonitrile 3 min, to 50% in 2 min, to 85% in 15 min, held 3 min, 100 µL/min. Conditions: column: Zorbax Extend-C18 2.1 x 50 mm; eluents: water / acetonitrile, 0.1% formic acid. The procedure, abridged: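 Mixtures of ~100 pure standards were chromatographed on a Zorbax Extend-C18 column (2.1 × 50 mm, 1.8 μm) at 100 μL/min using water and acetonitrile, each with 0.1% formic acid. Detection used a quadrupole time-of-flight mass spectrometer in positive and negative ionization mode, and data collection spanned 3 months. Retention time was obtained from adduct peaks picked computationally and each checked manually.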
With `CC1CN(c2ccc(F)cc2)c2nc3c(c(=O)n(CC(=O)O)c(=O)n3C)n2C1` (stereo not given), the RP-LC retention time was 729 s. The same measure for `COc1ccc(OC)c(CNC(=O)c2cn3c(n2)CCCC3)c1`: 587 s; for `O=C(NCc1ccc2c(c1)OCO2)C1CCCN(S(=O)(=O)c2c[nH]c(C(=O)N3CCCC3)c2)C1` (stereo not given): 738 s; for `Cc1nc(-c2ccc(-c3noc(C(C)Oc4ccccc4)n3)cc2)cs1` (stereo not given): 1210 s. Consider `O=C(c1ccc[nH]c1=O)N1CCC(Cn2c(COc3ccccc3)nc3ccccc32)CC1`, for which the RP-LC retention time amounted to 556 s. The same measure for `CCNC(=O)c1cc(-c2ccc(F)cc2)n(C)c1C`: 820 s. `O=C(NCCc1ccccc1)c1cn2c3c(ccc(Cl)c3c1=O)OCC2` had an RP-LC retention time of 880 s. Next, `CCCNc1cc(N2CCCC(CCC(=O)N3CCN(c4ncccn4)CC3)C2)ncn1` (stereo not given): 637 s; `CCOC(=O)C1CCN(C(=O)c2nc3ccccn3c2-c2ccsc2)CC1`: 664 s. Next, `COc1ccc(NC(=O)c2cccc(N3CCNC(c4ccccc4)C3)n2)cc1` (stereo not given): 665 s; `O=C1CCCc2cc(S(=O)(=O)N3CCC(C(=O)NCc4ccc(F)cc4)CC3)ccc2N1`: 724 s.

`CCOc1ccc(CNC(=O)C2CCN(Cc3cn(C)c4ccc(Cl)cc34)CC2)cc1OC` displayed an RP-LC retention time of 717 s.

In turn, `COc1cccc(-c2[nH]ncc2CNS(=O)(=O)c2cc(OC)ccc2OC)c1` returned an RP-LC retention time of 756 s. Next, `O=C(Nc1nc2c(s1)CCCC2)c1cccc(C(F)(F)F)c1`: 1030 s; `COc1ccc(C(=O)N2CCN(c3ccc(-c4nc(C)cs4)cn3)CC2)cc1OC`: 736 s.

For the compound `COCCNc1c(-c2ccc(F)cc2)nc2sc(C(=O)NCc3cccnc3)c(C)n12`, the RP-LC retention time turned out to be 631 s. Next, `Cc1sc(-c2noc(C(C)C)n2)cc1S(=O)(=O)N1CCC(C(=O)N2CCOCC2)CC1`: 909 s. The same measure for `CCOc1ccccc1CNC(=O)c1nc(N2CCOCC2)c2ccccc2n1`: 738 s; for `COc1ccc(-c2nnc(Cc3nc(-c4ccc5c(c4)OCO5)no3)o2)cc1`: 916 s. Next, `COc1ccccc1N1CCN(c2ccc3cc(S(=O)(=O)N4CCCC4)ccc3n2)CC1`: 855 s; `COCc1noc([C@@H]2CN(C(=O)c3noc(C)c3COC)C[C@H]2C(N)=O)n1`: 625 s. For `COc1ccc(Br)cc1S(=O)(=O)NCCCn1ccnc1`, the RP-LC retention time was 568 s.

`Brc1ccc(CSc2nnc3ccc(-c4cccnc4)nn23)cc1`: the RP-LC retention time came to 723 s. Next, `N#Cc1c(N)nc(N)nc1Nc1ccc(Br)cc1`: 777 s. The same measure for `CCCCn1c(=O)c2ccccc2n(Cc2nc(-c3ccccc3Cl)no2)c1=O`: 1160 s; for `Cc1nnc2ccc(N3CCC(C(=O)NCCCN4CCN(c5ccc(F)cc5)CC4)CC3)nn12`: 838 s; for `COc1ccc(N2CCN(c3cc(SCC(=O)Nc4ccccc4F)ncn3)CC2)cc1`: 1030 s. The same measure for `c1ccc(-c2noc(N3CCCCC3)n2)cc1`: 1070 s; for `COc1cc(OC)cc(C(=O)N2CCC3(C2)C(=O)Nc2ccc(OC)cc23)c1` (stereo not given): 710 s. In the case of `O=C1[C@H]2CN(Cc3ccncc3)C[C@H]2C(=O)N1Cc1ccc2c(c1)OCO2`, the RP-LC retention time is 605 s. In turn, `Cn1c(C(=O)N2CCN(c3ccccn3)CC2)cc2c(=O)n(C)c3ccccc3c21` registered an RP-LC retention time of 562 s. `COC(=O)CCN1C(=O)c2ccccc2C1=O` gave an RP-LC retention time of 688 s. Next, `COC(=O)c1nnn(-c2ccc(C(C)C)cc2)c1C(=O)OC`: 996 s; `CCOC(=O)CNC(=O)N1CCC(n2c(-c3ccc(F)cc3)nc3cccnc32)C1` (stereo not given): 641 s; `CCn1c(N2CCCC(C(=O)NCc3cccnc3)C2)cc(=O)n(C)c1=O` (stereo not given): 575 s.

`CCN1C(=O)COc2ccc(-c3csc(NC(=O)c4ccc(OC)c(OC)c4)n3)cc21`: the RP-LC retention time amounted to 943 s. Next, `Cc1ccc(-c2nnc(-c3nn(C)c4c3CN(S(=O)(=O)c3c(C)n[nH]c3C)CC4)o2)cc1`: 782 s. Next, `CCCN1CCN(CCCNC(=O)C(C)n2c(=O)c(C(F)(F)F)nc3ccccc32)CC1` (stereo not given): 622 s; `O=C(Cn1cccc1-c1nnc(-c2ccccc2)o1)N1CCN(c2ccccc2F)CC1`: 996 s; `CC(C)CC(=O)NCC12CCC=C1N(C)C(=O)CC2` (stereo not given): 691 s. Next, `CSc1ccc(CNC(=O)C2CCN(c3cc(=O)n(C)c(=O)n3C)CC2)cc1`: 694 s; `CC(C)NC(=O)c1ccc(-c2nc3cc(NS(=O)(=O)CCc4ccccc4)ccc3n2C)cc1`: 694 s; `Cc1csc(-c2cc(S(=O)(=O)Nc3cc(F)ccc3Cl)cn2CC(=O)N2CCCC2)n1`: 957 s. For `O=C(Cn1ccc2ccc(N3CCCCCC3)nc21)N1CCC(N2CCCCC2)CC1`, the RP-LC retention time was 709 s.

In the case of `O=C(Cn1ccc2ccn(Cc3cccnc3)c2c1=O)N1CCOCC1`, the RP-LC retention time stood at 569 s. The compound `CCC(=O)Nc1nc(-c2ccccc2)cs1` gave an RP-LC retention time of 836 s. Next, `CCOC(=O)c1nc(NCC2CCN(Cc3cccc(F)c3)CC2)c2ccccc2n1`: 605 s; `c1cn2cnnc2cc1-c1noc(-c2ccc3c(c2)OCO3)n1`: 792 s; `COc1ccccc1CNC(=O)C1c2ccccc2C(=O)N2CCc3cc(OC)c(OC)cc3C12` (stereo not given): 735 s. Next, `Cn1nc(C(=O)NCc2cccs2)ccc1=O`: 632 s. Next, `O=C1NCCCn2cc(S(=O)(=O)NCc3ccc4c(c3)OCO4)cc21`: 640 s; `COC(=O)C1=C(C)NC(SCC(=O)NC2CCCCC2)=C(C#N)C1c1ccccc1F` (stereo not given): 1020 s; `Cc1cc2c(c(=O)n(-c3ccccc3)c(=O)n2CC(=O)Nc2ccc(Br)cc2F)n1C`: 894 s. `COc1ccc(NC(=O)c2cn3c(n2)CCCC3)cc1OC` yielded an RP-LC retention time of 570 s.

In turn, `COc1ccc(-c2nnc(SCc3ccc(Br)cc3)o2)c(OC)c1` displayed an RP-LC retention time of 1120 s. Compound `Cc1nc(CC(=O)Nc2nc(-c3ccc(OC(C)C)cc3)cs2)cs1` returned an RP-LC retention time of 1080 s. Next, `CCCCn1c(=O)c2c(nc3n2CCN3c2ccc(OC)cc2)n(C)c1=O`: 939 s; `CCc1nc2cc(N3CCC(C(=O)N(C)Cc4ccco4)CC3)cnc2nc1CC`: 755 s. Next, `CCOc1nc2ccccc2nc1N1CCCC(C(=O)N2CCCC2)C1` (stereo not given): 1070 s; `COc1cccc(CN2CN(c3ccc(C)cc3)c3ncccc3S2(=O)=O)c1`: 1110 s; `Cc1ccc(-c2noc(C3CCCN3S(=O)(=O)c3ccc(C(C)C)cc3)n2)cc1` (stereo not given): 1310 s. Next, `COc1ccccc1NC(=O)Cn1cnc2nc(N3CCC(C(=O)NC4CC4)CC3)sc2c1=O`: 656 s. For `CN1C(=O)C2(c3ccccc31)C(C(=O)Nc1c(F)c(F)c(F)c(F)c1F)CC1CCCN12` (stereo not given), the RP-LC retention time was 653 s. Next, `Cc1cc(=O)n(CC(=O)Nc2ccc(F)cc2)c(-c2ccc(Cl)cc2)n1`: 1120 s; `CCOC(=O)c1ccc(NS(=O)(=O)N2CCOCC2)cc1`: 724 s; `CCN(Cc1ccccc1)C(=O)c1cn2c(n1)COCC2`: 640 s. Next, `Cc1nc2cc(-c3noc(-c4cccc(Br)c4)n3)ccc2o1`: 1270 s; `O=C(Nc1ccc2c(c1)CN(C(=O)C1COc3ccccc3O1)CCO2)C1CC1` (stereo not given): 823 s.

As to `O=C(NCc1ccco1)c1ccc(-c2ccc(N3CCSCC3)nc2)cc1`, the RP-LC retention time worked out at 708 s.

In turn, `CN(Cc1ccccc1)C(=O)Cn1c(=O)c2cnc(-c3ccccc3)nc2n(C)c1=O` registered an RP-LC retention time of 1020 s.

Compound `Cc1sc(NC(=O)C(C)(C)C)nc1-c1ccc2c(c1)NC(=O)CO2` registered an RP-LC retention time of 830 s. For the compound `Fc1cccc(-c2nc(-c3ccc4c(c3)ncn4CCN3CCOCC3)no2)c1`, the RP-LC retention time was 642 s. With `O=C(NCCN1CCOCC1)C1CCN(c2nccnc2Sc2ccccc2)CC1`, the RP-LC retention time was found to be 627 s.

In turn, `CC(C)CN(C1CCOCC1)C1CN(C(=O)c2cnccn2)C1` registered an RP-LC retention time of 556 s.

Regarding `CC(C)NC(=O)C1CC(=O)N(CCc2c[nH]c3ccc(Cl)cc23)C1` (stereo not given), the RP-LC retention time stood at 731 s. The same measure for `CCN1CCN(C(=O)C2CCN(S(=O)(=O)c3cc(-c4noc(C)n4)cs3)CC2)CC1`: 615 s.

`Cc1nnc2c(=O)n(CC(=O)N3CCCC(C)C3)c3cccnc3n12` (stereo not given) came in with an RP-LC retention time of 668 s. The same measure for `CCCNC(=O)C1CCCN(c2ccc(SCC(=O)Nc3ccc(CC)cc3)nn2)C1` (stereo not given): 656 s; for `CCN(C)C(=O)C1CN(C(=O)c2cccs2)CC1c1cccc(C(F)(F)F)c1` (stereo not given): 823 s; for `O=C(CCNc1c(-c2cccc(F)c2)nc2cnccn12)NCc1cccc(Cl)c1`: 772 s.
